Experiments:
[1] = system: rats; assay: Intravenous self-administration; format: in vivo, rat; settings: for shape of IVSA dose-response / unit dose with peak infusion rates in IVSA dose response: trained rats; for acquisition of IVSA in dose finding experiments: rats, (R)-MTD at 50 μg/kg/infusion, (S)-MTD even at high unit doses
[2] = system: rats; assay: Hotplate analgesia; format: in vivo, rat
[3] = system: rats; assay: Catalepsy score; format: in vivo, rat
[4] = system: mice; assay: Acute locomotor activity; format: in vivo, mouse; settings: for most effective dose for locomotor activation (inverted U) / effect on locomotion: sc; for effect on locomotion: after 60 minutes of habituation, (S)-MTD up to 100 mg/kg
[5] = system: mice; assay: Psychomotor sensitization, repeated injections in open-field chambers; format: in vivo, mouse; settings: for psychomotor sensitization: ip, three days, (R)-MTD 2, 5, 10, (R,S)-MTD 4, 10, 20, (S)-MTD 20, 30, 40 mg/kg
[6] = biological target: SERT (Homo sapiens, UniProt P31645); assay: Receptor and enzyme competitive screen; format: binding; settings: 100 nM
Sequence of SERT (P31645 whole entry, species assumed, the tested form may be a part): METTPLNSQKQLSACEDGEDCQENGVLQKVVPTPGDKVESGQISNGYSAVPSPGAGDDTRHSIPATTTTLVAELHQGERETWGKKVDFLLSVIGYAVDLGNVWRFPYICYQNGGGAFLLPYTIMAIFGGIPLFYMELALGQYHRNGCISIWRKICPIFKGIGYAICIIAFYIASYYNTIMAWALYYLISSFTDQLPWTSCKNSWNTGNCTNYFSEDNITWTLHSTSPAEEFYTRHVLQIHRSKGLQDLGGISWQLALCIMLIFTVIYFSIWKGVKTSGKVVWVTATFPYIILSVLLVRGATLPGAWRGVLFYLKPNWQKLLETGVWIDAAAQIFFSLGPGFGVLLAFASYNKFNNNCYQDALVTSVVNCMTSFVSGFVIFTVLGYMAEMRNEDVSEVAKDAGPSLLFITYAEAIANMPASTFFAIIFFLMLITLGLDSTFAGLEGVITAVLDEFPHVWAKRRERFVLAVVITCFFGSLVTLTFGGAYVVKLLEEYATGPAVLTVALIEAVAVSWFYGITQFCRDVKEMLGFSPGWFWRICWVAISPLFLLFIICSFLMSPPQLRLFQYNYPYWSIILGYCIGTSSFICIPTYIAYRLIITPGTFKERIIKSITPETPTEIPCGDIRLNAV

[7] = system: extracellular dopamine in rat VTA; assay: In vivo microdialysis, perfusion into VTA, somatodendritic dopamine release; settings: for effect on extracellular dopamine: local perfusion, (S)-MTD up to 100 μM
[8] = system: NMDARs; settings: ref [10], cited from earlier work

Structure (SMILES)	shape of IVSA dose-response [1]	unit dose with peak infusion rates in IVSA dose response [1] [µg/kg]	hotplate ED50 (%MPE) [2] [mg/kg]	hotplate agonist profile [2]	cataleptic ED50 (%MPE) [3] [mg/kg]	dose at which maximal cataleptic effects were observed [3] [mg/kg]	most effective dose for locomotor activation (inverted U) [4] [mg/kg]	effect on locomotion [4]	psychomotor sensitization [5]	effect on extracellular dopamine [7]	acquisition of IVSA in dose finding experiments [1]	also measured
CCC(=O)C(CC(C)N(C)C)(c1ccccc1)c1ccccc1 (racemic) [(R,S)-MTD, (R,S)-methadone]	inverted-U shaped dose-response curve	50	1.2	full agonistic activity	2.1	10	10	increased locomotion	failed to show sensitization at any dose			
CCC(=O)C(C[C@@H](C)N(C)C)(c1ccccc1)c1ccccc1 [(R)-MTD]	inverted-U shaped dose-response curve	25	0.5	full agonistic activity	0.9	3	3	increased locomotion	produced psychomotor sensitization at 10 mg/kg	concentration-dependent increase in extracellular dopamine	readily self-administered	inhibition of binding at SERT [6]: 68%; maximum consumed at the highest dose in IVSA ([1]; rats exposed to (R)-MTD, dose finding): ~ 2 mg/kg
CCC(=O)C(C[C@H](C)N(C)C)(c1ccccc1)c1ccccc1 [(S)-MTD, (S)-methadone]	no evidence of dose response			full agonistic activity				did not produce any significant locomotor-activating effects	failed to show sensitization at any dose	did not induce any significant effect	never acquired IVSA	effect on (R)-MTD (10 μM)-induced dopamine release ([7]; co-perfusion, (S)-MTD 100 μM): completely counteracted; IVSA in (R)-MTD-trained rats switched to (S)-MTD ([1]; 500 μg/kg/infusion): reliable IVSA; cumulative dose consumed at the highest dose in IVSA ([1]; (R)-MTD-trained rats switched to (S)-MTD): ~ 30 mg/kg; affinity for the MOR, times greater than affinity for the NMDAR [8, 15]: ~ 300 times; affinity at NMDARs [8]: 2.6 to 7.4 µM; catalepsy score agonist profile ([3]; up to 100 mg/kg): partial agonist; effect on locomotor-stimulating effect of (R)-MTD (10 mg/kg, sc) ([4]; (S)-MTD 10, 30 mg/kg sc, 15 min before (R)-MTD): dose-dependently counteracted; effect of pretreatment on (R)-MTD-induced (10 mg/kg, ip) sensitization ([5]; (S)-MTD 10 or 30 mg/kg): did not prevent psychomotor sensitization

From article PMC11221360 (Molecular psychiatry, 2023)
